This passage reports MIC results from patent US9409905B2, “Antibacterial compounds and methods for use” (PTC THERAPEUTICS, INC., priority 2011, dated 2016).

In brackets after ≈: the same amount, converted by molar mass.

Assay [1] deals with Acinetobacter baumannii (A. baumannii) BAA747. The assay is described as follows: Antibacterial activity, MIC (Table 4). Format: cell-based. The settings on record: A. baumannii BAA747, read-out: MIC, BAA747. In a few lines:
(§1)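 The resistant panel comprises multi-drug resistant clinical isolates. All strains were tested by microbroth dilution, with the MIC in μg/mL taken as the lowest concentration that prevented macroscopically visible growth.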

Assay [2] has as its system Klebsiella pneumoniae (K. pneumoniae) 35657. The assay is described as follows: Antibacterial activity, MIC (Table 4). Format: cell-based. The settings on record: K. pneumoniae 35657, read-out: MIC, 35657. In a few lines:
as §1

Assay [3] has as its system Neisseria meningitidis (N. meningitidis) 13090. The assay is described as follows: Antibacterial activity, MIC (Table 8). Format: cell-based. In a few lines:
(§2)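 Broth microdilution MIC, read as the lowest drug concentration preventing macroscopically visible growth under test conditions and reported in μg/mL.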

Assay [4] concerns Haemophilus influenzae (H. influenzae) 49247. The assay is described as follows: Antibacterial activity, MIC (Table 6). Format: cell-based. The procedure, abridged: as §2
For assay [5], the system named is Moraxella catarrhalis (M. catarrhalis) 25238. The assay can be described thus: Antibacterial activity, MIC (Table 7). The assay is classed as cell-based. The source says: The antibacterial activity from a microbroth dilution method may be presented as the minimum inhibitory concentration (MIC in μg/mL). The MIC value is the lowest concentration of drug which prevents macroscopically visible growth under test conditions.
Antibacterial activity of test compounds against the Gram-negative bacteria Haemophilus influenzae (H. influenzae) 49247 is shown in Table 6, Moraxella catarrhalis (M. catarrhalis) 25238 is shown in Table 7 and Neisseria meningitidis (N. meningitidis) 13090 is shown in Table 8.

The test system of assay [6] is Pseudomonas aeruginosa (P. aeruginosa) 27853. The assay can be described thus: Antibacterial activity, MIC (Table 5). The assay is classed as cell-based. The note with it: P. aeruginosa 27853, read-out: MIC, 27853. In a few lines: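 MIC in μg/mL from broth microdilution; endpoint is the lowest drug level giving no visible growth.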
In a further assay the test system is E. coli LZ3111. The assay is described as follows: Antibacterial activity, MIC, quinolone resistant strain (Table 2). Format: cell-based. The note with it: Escherichia coli, LZ3111, read-out: MIC LZ3111. The procedure, abridged:
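Lowest concentration giving no macroscopically visible growth was taken as the MIC (μg/mL) after microbroth dilution testing.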

The subject of another assay is E. coli 25922. The assay can be described thus: Antibacterial activity, microbroth dilution MIC (Table 1). The assay is classed as cell-based, Escherichia coli. The note with it: Escherichia coli; microbroth dilution; control Gram-negative E. coli 25922 strain; read-out: MIC, 25922. The procedure, abridged: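 Broth microdilution against S. aureus 29213, E. coli 25922 and hypersensitive E. coli BAS849. MIC in μg/mL is the lowest drug concentration preventing macroscopically visible growth under test conditions.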
Background: In broth dilution the organism is exposed to a series of concentrations in liquid medium.

A further assay has as its system A. baumannii MXX2240. The assay can be described thus: Antibacterial activity, MIC, resistant strain (Table 4). The note with it: Acinetobacter baumannii, MXX2240; resistant A. baumannii MMX2240, multi-drug resistant clinical isolate; read-out: MIC, MMX2240. Format: cell-based. In a few lines: as §1
A further assay deals with K. pneumoniae MXX1232. Described as above. The assay is classed as cell-based. The settings on record: Klebsiella pneumoniae, MXX1232; resistant K. pneumoniae MMX1232, multi-drug resistant clinical isolate; read-out: MIC, MMX1232. The procedure, abridged:
as §1

For the next assay, the system named is E. coli ELZ4000. The assay can be described thus: Antibacterial activity, MIC, multi-drug resistant clinical isolate (Table 3). Format: cell-based. The note with it: Escherichia coli, ELZ4000, read-out: MIC ELZ4000. In a few lines:
(§3)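 Growth inhibition is measured by microbroth dilution, and the minimum inhibitory concentration in μg/mL corresponds to the lowest drug level that prevents visible bacterial growth.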

Another assay concerns E. coli ELZ4251. The description is as above. The settings on record: Escherichia coli. The assay is classed as cell-based. In a few lines: as §3
The subject of assay [7] is Escherichia coli (E. coli) BAS849. The assay can be described thus: Antibacterial activity, microbroth dilution MIC (Table 1). The assay is classed as cell-based. The settings on record: microbroth dilution, super sensitive Gram-negative E. coli BAS849, read-out: MIC, BAS849. In a few lines: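 Lowest concentration stopping macroscopically visible growth under test conditions, by broth microdilution, defines the MIC (μg/mL).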

In assay [8] the test system is Staphylococcus aureus (S. aureus) 29213. The description is as above. Format: cell-based. The note with it: microbroth dilution, Gram-positive S. aureus 29213, read-out: MIC, 29213. In a few lines: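 Read-out: visual absence of growth. The lowest concentration meeting this gives the MIC, expressed in μg/mL, with microbroth dilution as the method.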

Turning to `CCc1c(-c2ccc3c(c2)cc(CN2CC[C@H](N)C2)n3C)[nH]c(=O)c(C(=O)O)c1O` [Cpd 180, (S)-6-(2-((3-aminopyrrolidin-1-yl)methyl)-1-methyl-1H-indol-5-yl)-5-ethyl-4-hydroxy-2-oxo-1,2-dihydropyridine-3-carboxylic acid], the MIC in assay [1] is 12.5 to 150 µg/mL (≈ 30.5 to 365 µM); in assay [2], 3.5 to 12.5 µg/mL (≈ 8.53 to 30.5 µM); in assay [3], 1 to 3.5 µg/mL (≈ 2.44 to 8.53 µM); in [4], 1 to 3.5 µg/mL (≈ 2.44 to 8.53 µM); in [5], 3.5 to 12.5 µg/mL (≈ 8.53 to 30.5 µM); in assay [6], 12.5 to 150 µg/mL (≈ 30.5 to 365 µM). Besides, the MIC with E. coli LZ3111 was 1 to 3.5 µg/mL (≈ 2.44 to 8.53 µM); with E. coli 25922 it was 1 to 3.5 µg/mL (≈ 2.44 to 8.53 µM); in the assay on A. baumannii MXX2240 it was 12.5 to 150 µg/mL (≈ 30.5 to 365 µM); with K. pneumoniae MXX1232 it was 12.5 to 150 µg/mL (≈ 30.5 to 365 µM); with E. coli ELZ4000, 12.5 to 150 µg/mL (≈ 30.5 to 365 µM); in the assay on E. coli ELZ4251 it was 3.5 to 12.5 µg/mL (≈ 8.53 to 30.5 µM). Besides, the MIC in [7] is less than 1 µg/mL; in assay [8], 12.5 to 150 µg/mL (≈ 30.5 to 365 µM).

For the compound `CCc1c(-c2ccc3c(c2)cc(CN2CCC(NC)C2)n3C)[nH]c(=O)c(C(=O)O)c1O` (centres unmarked) [Cpd 181, 5-ethyl-4-hydroxy-6-(1-methyl-2-((3-(methylamino)pyrrolidin-1-yl)methyl)-1H-indol-5-yl)-2-oxo-1,2-dihydropyridine-3-carboxylic acid], the MIC in assay [1] is 3.5 to 12.5 µg/mL (≈ 8.24 to 29.4 µM); in [2], 1 to 3.5 µg/mL (≈ 2.36 to 8.24 µM); in assay [3] it was 1 to 3.5 µg/mL (≈ 2.36 to 8.24 µM); in assay [4] it was 1 to 3.5 µg/mL (≈ 2.36 to 8.24 µM); in assay [5], 1 to 3.5 µg/mL (≈ 2.36 to 8.24 µM); in assay [6], 12.5 to 150 µg/mL (≈ 29.4 to 353 µM). Moreover, the MIC with E. coli LZ3111 fell in the range of 1 to 3.5 µg/mL (≈ 2.36 to 8.24 µM); with E. coli 25922 it was 1 to 3.5 µg/mL (≈ 2.36 to 8.24 µM); in the assay with A. baumannii MXX2240 it was 12.5 to 150 µg/mL (≈ 29.4 to 353 µM); in the assay with K. pneumoniae MXX1232, 12.5 to 150 µg/mL (≈ 29.4 to 353 µM); in the assay on E. coli ELZ4000 it was 12.5 to 150 µg/mL (≈ 29.4 to 353 µM); with E. coli ELZ4251, 12.5 to 150 µg/mL (≈ 29.4 to 353 µM). In addition, the MIC in assay [7] is less than 1 µg/mL; in assay [8] it was 12.5 to 150 µg/mL (≈ 29.4 to 353 µM).

As for `CCc1c(-c2ccc3c(c2)cc(CN2CC4CCCNC4C2)n3C)[nH]c(=O)c(C(=O)O)c1O` (centres unmarked) [Cpd 184, 5-ethyl-4-hydroxy-6-(1-methyl-2-((tetrahydro-1H-pyrrolo[3,4-b]pyridin-6(2H,7H,7aH)-yl)methyl)-1H-indol-5-yl)-2-oxo-1,2-dihydropyridine-3-carboxylic acid], the MIC in [1] was 3.5 to 12.5 µg/mL (≈ 7.77 to 27.7 µM); in assay [2], 1 to 3.5 µg/mL (≈ 2.22 to 7.77 µM); in [3] it was less than 1 µg/mL; in [4], 1 to 3.5 µg/mL (≈ 2.22 to 7.77 µM); in assay [5], 1 to 3.5 µg/mL (≈ 2.22 to 7.77 µM); in assay [6], 12.5 to 150 µg/mL (≈ 27.7 to 333 µM). Also, the MIC in the assay with E. coli LZ3111 lay in the range of 1 to 3.5 µg/mL (≈ 2.22 to 7.77 µM); with E. coli 25922 it was 1 to 3.5 µg/mL (≈ 2.22 to 7.77 µM); in the assay on A. baumannii MXX2240 it was 12.5 to 150 µg/mL (≈ 27.7 to 333 µM); with K. pneumoniae MXX1232, 12.5 to 150 µg/mL (≈ 27.7 to 333 µM); in the assay on E. coli ELZ4000, 12.5 to 150 µg/mL (≈ 27.7 to 333 µM); against E. coli ELZ4251, 3.5 to 12.5 µg/mL (≈ 7.77 to 27.7 µM). The MIC is less than 1 µg/mL in assay [7] and 12.5 to 150 µg/mL (≈ 27.7 to 333 µM) in assay [8].

Take `CCc1c(-c2ccc3c(c2)cc(CN2CCC(C(C)(C)N)C2)n3C)[nH]c(=O)c(C(=O)O)c1O` (centres unmarked) [Cpd 185, 6-(2-((3-(2-aminopropan-2-yl)pyrrolidin-1-yl)methyl)-1-methyl-1H-indol-5-yl)-5-ethyl-4-hydroxy-2-oxo-1,2-dihydropyridine-3-carboxylic acid]: the MIC in assay [1] was 12.5 to 150 µg/mL (≈ 27.6 to 331 µM); in [2] it was 1 to 3.5 µg/mL (≈ 2.21 to 7.73 µM); in [3], less than 1 µg/mL; in assay [4] it was 1 to 3.5 µg/mL (≈ 2.21 to 7.73 µM); in assay [5], 1 to 3.5 µg/mL (≈ 2.21 to 7.73 µM); in [6], 3.5 to 12.5 µg/mL (≈ 7.73 to 27.6 µM). Besides, the MIC was in the range of 1 to 3.5 µg/mL (≈ 2.21 to 7.73 µM) in the assay with E. coli LZ3111; 1 to 3.5 µg/mL (≈ 2.21 to 7.73 µM) in the assay with E. coli 25922; 12.5 to 150 µg/mL (≈ 27.6 to 331 µM) in the assay on A. baumannii MXX2240; 12.5 to 150 µg/mL (≈ 27.6 to 331 µM) with K. pneumoniae MXX1232; 12.5 to 150 µg/mL (≈ 27.6 to 331 µM) in the assay on E. coli ELZ4000; 12.5 to 150 µg/mL (≈ 27.6 to 331 µM) in the assay on E. coli ELZ4251. Further, the MIC in assay [7] is less than 1 µg/mL; in [8] it was 12.5 to 150 µg/mL (≈ 27.6 to 331 µM).
